Assay results published in patent publication US12102709B2, “Anti-obesity agent, anti-dementia agent, deodorant, anti-aging agent, anti-glycation agent, anti-type I allergy agent, hypotensive agent, flavor improving agent, muscle enhancing agent, and bone metabolism improving agent” (Mitsui Sugar Co., Ltd., priority 2018, dated 2024).

Legend:
[1] = AGEs crosslinking cutting test; format: biochemical; settings: PTB 5 mmol/L
Procedure: Next, according to the AGEs crosslinking cutting test, the AGEs decomposition activity of the bagasse decomposition extract (the extract A) was evaluated. […] PPD) having an α-diketone structure was used as a model substrate, which is a known method (for example, Glycative Stress Research 2015, Vol. 2 (No. 2), pp. 58-66). The extract A as a bagasse decomposition extract was dissolved in distill water to a concentration of 20 mg/mL to prepare a test sample. The above prepared sample was added to a reaction solution containing a 0.16 mol/L phosphate buffer solution (pH 7.4), and a […] PPD composition to a concentration of 1/2 (10 mg/mL) and incubated at 37° C. for 8 hours. […] The amount of benzoic acid in the supernatant was analyzed through reversed phase HPLC. The amount of benzoic acid in the reaction solution was determined by subtracting the amount of benzoic acid in the sample that was separately measured. Since 1 mol of PPD produced 1 mol of benzoic acid, the crosslinking cutting rate was calculated according to the following formula. […] Then, the reaction solution was centrifuged at 20° C. and 3,000×g, for 10 minutes, and the amount of benzoic acid in the supernatant was analyzed through reversed phase HPLC. The amount of benzoic acid in the reaction solution was determined by subtracting the amount of benzoic acid in the sample that was separately measured. […]

[2] = tested on: 3T3-L1 cells; assay: 3T3-L1 cell lipid accumulation inhibition test; format: cell-based, mouse; settings: berberine chloride final concentration 1 μg/mL; untreated control = 100%
Procedure: The extract A was dissolved in water to prepare 50 mg/mL of a test solution stock solution. The test solution stock solution was diluted with a DMEM culture medium to prepare a test solution with a specimen concentration of 2,000 μg/mL.
3T3-L1 cells (National Institute of Biomedical Innovation, Health and Nutrition) as mouse adipose progenitor cells were seeded on a 24-well plate, and cultured in a DMEM culture medium containing a newborn calf serum (10 vol %, with respect to a total amount of the culture medium) and a penicillin-streptomycin solution (1 vol %, with respect to a total amount of the culture medium) for 4 days. […]
After the lipid droplets were observed, a pigment extract solution contained in the Adipogenesis Assay Kit was added to samples of Example a1, Comparative Example a1-1, and Positive Control a1-1, and Oil Red O incorporated into the lipid droplets was extracted. The absorbance of the extracted Oil Red O at 520 nm was measured using a microplate reader (SpectraMax M2e, commercially available from Molecular Devices, LLC.).
The lipid accumulation rate was calculated from the absorbance of respective samples according to the following formula. […]

[3] = tested on: C2C12 cells; assay: Mitochondrial activation test (amount of mitochondria per cell); format: cell-based, mouse; settings: Table 24; positive control; 48 hours; Comparative Example i1-4 = 100%
Procedure: (Cells) • Mouse Myoblasts C2C12 Cells (ATCC, CRL-1772) (Culture Mediums) • Growth culture medium composition: DMEM culture medium, 10% FBS, antibiotics added • Differentiation culture medium composition: DMEM culture medium, 0.5% FBS, antibiotics added C2C12 cells were cultivated using a growth culture medium in a T-75 flask (75 cm^2 U-shaped canted neck cell culture flask, commercially available from Corning Co., Ltd.). The T-75 flask was put into a CO2 incubator (5% CO2, 37° C., wet) and the C2C12 cells were cultured. The culture medium was replaced every other day, and when an 80% confluence was reached, the cells were collected and used for the test. Here, in the following test, regarding a well plate for culturing C2C12 cells, a plate coated with gelatin according to the following coating method was used. […] Then, after the culture supernatant was removed, a differentiation culture medium containing 5 μg/mL Hoechst (reagent for nuclear staining) and 500 nM MitoTracker (mitochondria staining reagent) was added to the well plate, and the fluorescence intensity was measured by the same method as in Test Example i1-1. The amount of mitochondria per cell was calculated by dividing the fluorescence intensity of the differentiation culture medium containing MitoTracker by the fluorescence intensity of the differentiation culture medium containing Hoechst. […]

[4] = tested on: C2C12 cells; assay: Mitochondrial activation test (activity per cell); format: cell-based, mouse; settings: resveratrol 50 μM, 1% (v/v) ethanol; 48 hours; Comparative Example i1-2 = 100%
Procedure: (Cells) • Mouse Myoblasts C2C12 Cells (ATCC, CRL-1772) (Culture Mediums) • Growth culture medium composition: DMEM culture medium, 10% FBS, antibiotics added • Differentiation culture medium composition: DMEM culture medium, 0.5% FBS, antibiotics added C2C12 cells were cultivated using a growth culture medium in a T-75 flask (75 cm^2 U-shaped canted neck cell culture flask, commercially available from Corning Co., Ltd.). The T-75 flask was put into a CO2 incubator (5% CO2, 37° C., wet) and the C2C12 cells were cultured. The culture medium was replaced every other day, and when an 80% confluence was reached, the cells were collected and used for the test. […] Pre-cultured cells were seeded in a 96-well plate for fluorescence observation (optical bottom plate, commercially available from Nunc) at 4×10^4 cells/0.1 mL/well using a growth culture medium. […] Then, the fluorescence intensity was measured with a fluorescent plate reader. The mitochondrial activity per cell was calculated by dividing the fluorescence intensity of the differentiation culture medium containing rhodamine by the fluorescence intensity of the differentiation culture medium containing Hoechst. […] In addition, the relative values (%) in the test samples of Examples i1-4 to i1-6 and Positive Control it when the mitochondrial activity in the test sample of Comparative Example i1-2 was set as 100% were determined.

[5] = tested on: human osteoclast precursor cells; assay: Osteoclast differentiation inhibition test 1 (TRAP staining); format: cell-based; settings: 1,000 μM melatonin; 7 days; FIG. 11
Procedure: (Cells) • Human osteoclast precursor cells (commercially available from Cosmo Bio Co., Ltd. PT-267 Lot. RBW-F-OSH-HBV) Using the above culture medium, 250 μg/mL of a solution containing the extract A was prepared, and this was used as a test solution (Example j2-1). Human osteoclast precursor cells were seeded in a 96-well culture plate at about 0.3×10^5 cells/50 μl/well. A test solution was added thereto at 50 μL/well and culturing was performed under conditions of 37° C. and 5% CO2 for 7 days. The cultured cells were stained with TRAP using a TRAP staining kit, and observed under a microscope. In the same manner, the same test was performed on a culture medium to which no test solution was added (Comparative Example j2-1) and a culture medium containing 1,000 μM melatonin (Positive Control j2) as a positive control.

[6] = tested on: human osteoclast precursor cells; assay: Osteoclast differentiation inhibition test 2 (proportion of mononuclear cells); format: cell-based; settings: 7 days
Procedure: It is known that, when osteoclasts mature, cells fuse each other and become multinucleated. Therefore, the proportion of mononuclear cells of osteoclasts was measured, and an osteoclast differentiation inhibition effect was confirmed. Under the same culture conditions as in Example j2-1, human osteoclast precursor cells were cultured using a culture medium containing the extract A with a concentration shown in Table 27 (Example j3-1), a culture medium containing no extract (Comparative Example j3-1), or a culture medium containing melatonin with a concentration shown in Table 27 (Positive Controls j3-1 to j3-2) as positive controls. The proportion of mononuclear cells (%) was calculated by dividing the number of mononuclear cells in the field of view of the microscope by the total number of cells in the field of view.

## O=C(C[n+]1ccsc1)c1ccccc1.[Br-] [PTB, N-phenacylthiazoliumbromide]
[1]; Test Example e2
  Crosslinking cutting rate: 20.1%
[1]; Test Example e4
  Crosslinking cutting rate: 22.4%

## COc1ccc2cc3[n+](cc2c1OC)CCc1cc2c(cc1-3)OCO2 [Positive Control a1-1, berberine chloride]
[2]
  Lipid accumulation rate: 19±1.0%

## Oc1ccc(C=Cc2cc(O)cc(O)c2)cc1 [Positive Control i1-1, resveratrol]
[3]
  Amount of mitochondria per cell (relative value, %): 178.4 ± 9.6%
[4]
  Mitochondrial activity per cell (relative value, %): 178.4 ± 9.6%

## COc1ccc2[nH]cc(CCNC(C)=O)c2c1 [Positive Control j3-1, melatonin]
[5]
  Microscopic observation of TRAP-stained osteoclasts: a decrease in the number of osteoclasts was also observed
[6]; melatonin 500 μM
  Proportion of mononuclear cells (%) (average N = 3): 88%
[6]; melatonin 1,000 μM
  Proportion of mononuclear cells (%) (average N = 3): 100%
